Assay results from patent US20210130420A1, “RECOMBINANT BINDING PROTEINS TARGETING HER2 AND SERUM ALBUMIN, AND THEIR USES” (Molecular Partners AG, priority 2016, published 2021).

Experiments:
GXA3039 = experiment: Gastric cancer patient derived tumor xenograft mouse model GXA3039; type: in vivo; settings: GXA3039, FIG. 4D; Protein #21 60 mg/kg, antibodies 10 mg/kg, every three days for 6 times
Procedure: Further, Protein #21 was expressed and purified as described in Example 1. […] All groups were dosed every three days for 6 times. Briefly, tumor fragments were obtained from xenografts in serial passage in nude mice. After removal from donor mice, tumors were cut into fragments (4-5 mm diameter) for subcutaneous implantation. Mice were randomized into groups when tumors reached a volume of approximately 100-120 mm^3. The day of randomization and treatment initiation is designated as day 0 in each experiment. Tumor growth was monitored by two-dimensional measurement with a caliper on the day of randomization and then twice weekly. Relative volumes of individual tumors (individual RTVs) for Day x were calculated by dividing the individual tumor volume on Day x (Tx) by the individual volume of the same tumor on Day 0 (TO) multiplied by 100%. Tumor inhibition for a particular day (T/C in %) was calculated from the ratio of the median RTV values of test versus control groups multiplied by 100%.

Foxo3a protein [1] = experiment: Cellular levels of Foxo3a protein in NCI-N87 cells; type: cell-based; settings: compared to an exposure to PBS only
From the text: (§1) Protein #21 was expressed and purified as described in Example 1. […] Cells were then subjected to a phospho-proteome mass-spectrometry analysis as described by Britton, D., et al. (Britton, D., Zen, Y., Quaglia, A., Selzer, S., Mitra, VI., Lössner, C., Jung, S., Bohm, G., Schmid, P., Prefot, P., Hoehle, C., Koncarevic, S., Gee, J., Nicholson, R., Ward, M., Castellano, L., Stebbing, J., Zucht, H. D., Sarker, D., Heaton, N., and Pike, I., 2014. PLOS One 9 (3), e90948).
(§2) It is known to the practitioner in the art, that Akt1 phosphorylates Foxo3a, resulting in the degradation of Foxo3a and promotion of cell survival. Inhibition of Act phosphorylation leads to stabilization of Foxo3a and thus increase in Foxo3a levels. At increased levels Foxo3a can translocate to the nucleus and induce apoptosis.

AKT [2] = experiment: Phospho-site specific ELISA, BT474 cells; type: cell-based, human; settings: 100 nM, 18 hours
HER1/EGFR = experiment: Phosphorylation state ELISA, BT474 cells; type: cell-based, human; settings: 100 nM, 18 hours
HER3 = experiment: Phosphorylation state ELISA, BT474 cells; type: cell-based, human; settings: 100 nM, 18 hours
RAF = experiment: Phospho-proteome mass spectrometry of BT474 cells; type: cell-based, human; settings: 100 nM, 18 hours
From the text: as §1

AKT [3] = experiment: Phospho-proteome mass spectrometry of BT474 cells; type: cell-based, human; settings: 100 nM, 18 hours
From the text: as §1

mTOR = experiment: Phospho-proteome mass spectrometry of BT474 cells; type: cell-based, human; settings: 100 nM, 18 hours
From the text: as §1

RPS6KB1/S6 Kinase = experiment: Phospho-proteome mass spectrometry of BT474 cells; type: cell-based, human; settings: 100 nM, 18 hours
From the text: as §1

BT474 cells = experiment: Induction of apoptosis, Caspase 3/7 activation; type: cell-based, human; settings: FIG. 7
Procedure: Briefly, 10000 BT474 cells were seeded per well in a 96 well plate in100 μl complete medium and incubated for 24 hours. […] Caspase Glo reagent was added according to the manufactures protocol for 1 hour. Caspase 3/7 activation was monitored by measuring luciferase activity. Alternatively induction of apoptosis was determined using the Cell Death Detection [sequence] system (Roche, Switzerland). The assay was performed according to the manufactures protocol. Cell number and incubations times were similar to the Caspase Glo readout. Data were analyzed using the GraphPad prism software, plotting concentration on the x-axis against OD405/490 nm or relative light units (RLU; measured on a Tecan M-1000 reader) on the y-axis. Data were fitted using a non-linear regression fit (log(agonist) vs. response—Variable slope (four parameters)).

Foxo3a protein [4] = experiment: Cellular levels of Foxo3a protein in BT474 cells; type: cell-based, human; settings: compared to an exposure to PBS only
From the text: as §1, §2

## Pertuzumab [reference compound]
GXA3039
  inhibition of tumor growth, second experiment: significantly less efficacious
Foxo3a protein [1]
  increase of cellular levels of Foxo3a protein: 1.25 fold
AKT [2]
  AKT S473 phosphorylation: 0.73 fold change to PBS
HER1/EGFR
  HER1/EGFR Pan-Phospho-Tyrosine: 0.68 fold change to PBS
HER3
  HER3 Pan-Phospho-Tyrosine: 0.78 fold change to PBS
RAF
  RAF S642 phosphorylation: 1.2 fold change to PBS
  RAF T631/T638/T640/T641/S642 phosphorylation: 1.01 fold change to PBS
AKT [3]
  AKT S124 phosphorylation: 1.04 fold change to PBS
  AKT S129 phosphorylation: 1.16 fold change to PBS
mTOR
  mTOR S2448/S2454 phosphorylation: 1.09 fold change to PBS
RPS6KB1/S6 Kinase
  RPS6KB1/S6Kinase S441/T444/S447 phosphorylation: 1.02 fold change to PBS
  RPS6KB1/S6Kinase T444/S447 phosphorylation: 1.04 fold change to PBS
BT474 cells
  induction of apoptosis in BT474 cells: did not induce apoptosis
Foxo3a protein [4]
  increase of cellular levels of Foxo3a protein: 1.21 fold
